Assay results taken from patent US10246422B2, “Heterocyclic compounds and use thereof in medicine and in cosmetics” (GALDERMA RESEARCH & DEVELOPMENT, priority 2014, dated 2019).

Test: Metabolic stability in the presence of human hepatic microsomes
Format: in vitro ADME
Conditions: compound 1 μM (DMSO 0.1%), microsomal protein 0.5 mg/mL, LC/MS/MS
Description: This is illustrated more particularly by the test of metabolic stability in the presence of human hepatic microsomes presented below.
Human hepatic microsomes (Becton Dickinson) are incubated at a protein concentration of 0.5 mg/mL in the reaction mixture.
The reaction mixture of the microsomes consists of phosphate buffer pH: 7.4 at 100 mM, MgCl2 at 100 mM (50/50), a system for generating […] consisting of a mixture of nicotinamide adenine […] (NADP), glucose-6-phosphate (G6P) at 1 mg/mL and glucose-6-phosphate dehydrogenase (G6PDH) at 4 U/mL. The compounds are tested at 1 μM (DMSO 0.1%).
The samples are taken from the incubation medium after adding the microsomes, at time 15 minutes. The metabolic reaction is stopped by adding methanol (1 volume incubation medium/3 volumes of methanol). The percentage of the parent product remaining after 15 minutes is measured by LC/MS/MS analysis.

SMILES	% of product remaining at 15 min (human hepatic microsomes) [%]
COc1c(C)cccc1-c1cn(CC(=O)N2CCC(N3CCc4ccccc4NC3=O)CC2)c(=O)n(C)c1=O [Compound 25, 5-(2-methoxy-3-methylphenyl)-3-methyl-1-{2-oxo-2-[4-(2-oxo-1,2,4,5-tetrahydro-benzo[d][1,3]diazepin-3-yl)-piperidin-1-yl]-ethyl}-1H-pyrimidine-2,4-dione]	8
Cc1cccc(-c2cn(CC(=O)N3CCC(N4CCc5ccccc5NC4=O)CC3)c(=O)n(C)c2=O)c1C [Compound 30, 5-(2,3-dimethylphenyl)-3-methyl-1-{2-oxo-2-[4-(2-oxo-1,2,4,5-tetrahydro-benzo[d][1,3]diazepin-3-yl)-piperidin-1-yl]-ethyl}-1H-pyrimidine-2,4-dione]	16
CSCCn1c(=O)c(-c2cccc(F)c2Cl)cn(CC(=O)N2CCC(N3CCc4ccccc4NC3=O)CC2)c1=O [Compound 112, 5-(2-chloro-3-fluorophenyl)-3-(2-methylsulphanyl-ethyl)-1-{2-oxo-2-[4-(2-oxo-1,2,4,5-tetrahydro-benzo[d][1,3]diazepin-3-yl)-piperidin-1-yl]-ethyl}-1H-pyrimidine-2,4-dione]	0
COC(=O)CCn1c(=O)c(-c2cccc(F)c2Cl)cn(CC(=O)N2CCC(N3CCc4ccccc4NC3=O)CC2)c1=O [Compound 114, 3-(5-(2-chloro-3-fluorophenyl)-2,6-dioxo-3-{2-oxo-2-[4-(2-oxo-1,2,4,5-tetrahydro-benzo[d][1,3]diazepin-3-yl)-piperidin-1-yl]-ethyl}-3,6-dihydro-2H-pyrimidin-1-yl)-methyl propionate]	41
COC[C@H](C)n1c(=O)c(-c2cccc(F)c2Cl)cn(CC(=O)Nc2ccc3c(c2)C[C@@]2(C3)C(=O)Nc3ncccc32)c1=O [Compound 165]	0
COc1cccc(C2=CN(CC(=O)N3CCC(N4CCc5ccccc5NC4=O)CC3)C(=O)N(C(C)C)C2)c1Cl [Compound 193, 3-(1-{2-[5-(2-chloro-3-methoxyphenyl)-3-isopropyl-2-oxo-3,4-dihydro-2H-pyrimidin-1-yl]-acetyl}-piperidin-4-yl)-1,3,4,5-tetrahydro-benzo[d][1,3]diazepin-2-one]	18
O=C(CN1C(=O)C2(CCCC2)NC[C@H]1c1cc(F)cc(F)c1)Nc1ccc2c(c1)C[C@@]1(C2)C(=O)Nc2ncccc21 [MK-3207, reference compound]	100
NCCCC[C@H](NC(=O)[C@@H](Cc1cc(Br)c(O)c(Br)c1)NC(=O)N1CCC(N2Cc3ccccc3NC2=O)CC1)C(=O)N1CCN(c2ccncc2)CC1 [Olcegepant, olcegepant, reference compound]	100
O=C(N[C@@H]1CC[C@@H](c2cccc(F)c2F)CN(CC(F)(F)F)C1=O)N1CCC(n2c(=O)[nH]c3ncccc32)CC1 [Telcagepant, telcagepant, reference compound]	100

The next lines start with the values.

% of product remaining at 15 min (human hepatic microsomes) [%]	SMILES
45	CC(C)n1c(=O)c(-c2cccc(F)c2Cl)cn(CC(=O)N2CCC(N3CCc4ccccc4NC3=O)CC2)c1=O [Compound 63, 5-(2-chloro-3-fluorophenyl)-3-isopropyl-1-{2-oxo-2-[4-(2-oxo-1,2,4,5-tetrahydro-benzo[d][1,3]diazepin-3-yl)-piperidin-1-yl]-ethyl}-1H-pyrimidine-2,4-dione]
1	COC[C@@H](C)n1c(=O)c(-c2cccc(F)c2Cl)cn(CC(=O)N2CCC(N3CCc4ccccc4NC3=O)CC2)c1=O [Compound 110, 5-(2-chloro-3-fluorophenyl)-3-((R)-2-methoxy-1-methylethyl)-1-{2-oxo-2-[4-(2-oxo-1,2,4,5-tetrahydro-benzo[d][1,3]diazepin-3-yl)-piperidin-1-yl]-ethyl}-1H-pyrimidine-2,4-dione]
0	COc1ccc2c(c1)CCN(C1CCN(C(=O)Cn3cc(-c4cccc(F)c4Cl)c(=O)n([C@@H](C)CNC(C)=O)c3=O)CC1)C(=O)N2 [Compound 115, N—[(S)-2-(5-(2-chloro-3-fluorophenyl)-3-{2-[4-(7-methoxy-2-oxo-1,2,4,5-tetrahydro-benzo[d][1,3]diazepin-3-yl)-piperidin-1-yl]-2-oxo-ethyl}-2,6-dioxo-3,6-dihydro-2H-pyrimidin-1-yl)-propyl]acetamide]
1	COc1ccc2c(c1)CCN(C1CCN(C(=O)Cn3cc(-c4cccc(F)c4Cl)c(=O)n([C@@H](C)CNS(C)(=O)=O)c3=O)CC1)C(=O)N2 [Compound 120, N—[(S)-2-(5-(2-chloro-3-fluorophenyl)-3-{2-[4-(7-methoxy-2-oxo-1,2,4,5-tetrahydro-benzo[d][1,3]diazepin-3-yl)-piperidin-1-yl]-2-oxo-ethyl}-2,6-dioxo-3,6-dihydro-2H-pyrimidin-1-yl)-propyl]-methanesulphonamide]
65	COc1ccc2c(c1)CCN(C1CCN(C(=O)Cn3cc(-c4cccc(F)c4Cl)c(=O)n([C@@H](C)CS(C)(=O)=O)c3=O)CC1)C(=O)N2 [Compound 142, 5-(2-chloro-3-fluorophenyl)-3-((S)-2-methanesulphonyl-1-methylethyl)-1-{2-[4-(7-methoxy-2-oxo-1,2,4,5-tetrahydro-benzo[d][1,3]diazepin-3-yl)-piperidin-1-yl]-2-oxo-ethyl}-1H-pyrimidine-2,4-dione]
42	COc1ccc2c(c1)CCN(C1CCN(C(=O)Cn3cc(-c4cccc(F)c4Cl)c(=O)n([C@H](C)CS(C)(=O)=O)c3=O)CC1)C(=O)N2 [Compound 143, 5-(2-chloro-3-fluorophenyl)-3-((R)-2-methanesulphonyl-1-methylethyl)-1-{2-[4-(7-methoxy-2-oxo-1,2,4,5-tetrahydro-benzo[d][1,3]diazepin-3-yl)-piperidin-1-yl]-2-oxo-ethyl}-1H-pyrimidine-2,4-dione]
26	COc1ccc2c(c1)CCN(C1CCN(C(=O)Cn3cc(-c4cccc(OC)c4F)c(=O)n(C(C)C)c3=O)CC1)C(=O)N2 [Compound 149, 5-(2-fluoro-3-methoxyphenyl)-3-isopropyl-1-{2-[4-(7-methoxy-2-oxo-1,2,4,5-tetrahydro-benzo[d][1,3]diazepin-3-yl)-piperidin-1-yl]-2-oxo-ethyl}-1H-pyrimidine-2,4-dione]
0	COc1ccc2c(c1)CCN(C1CCN(C(=O)Cn3cc(-c4ccccc4OC(F)(F)F)c(=O)n(C(C)C)c3=O)CC1)C(=O)N2 [Compound 150, 3-isopropyl-1-{2-[4-(7-methoxy-2-oxo-1,2,4,5-tetrahydro-benzo[d][1,3]diazepin-3-yl)-piperidin-1-yl]-2-oxo-ethyl}-5-(2-trifluoromethoxyphenyl)-1H-pyrimidine-2,4-dione]
0	CCC(=O)NC[C@H](C)n1c(=O)c(-c2cccc(F)c2Cl)cn(CC(=O)N2CCC(N3CCc4cc(OC)ccc4NC3=O)CC2)c1=O [Compound 158, N—[(S)-2-(5-(2-chloro-3-fluorophenyl)-3-{2-[4-(7-methoxy-2-oxo-1,2,4,5-tetrahydro-benzo[d][1,3]diazepin-3-yl)-piperidin-1-yl]-2-oxo-ethyl}-2,6-dioxo-3,6-dihydro-2H-pyrimidin-1-yl)-propyl]-propionamide]
1	COc1ccc2c(c1)CCN(C1CCN(C(=O)Cn3cc(-c4cccc(OC)c4Cl)c(=O)n([C@@H](C)CNC(C)=O)c3=O)CC1)C(=O)N2 [Compound 206, N—[(S)-2-(5-(2-chloro-3-methoxyphenyl)-3-{2-[4-(7-methoxy-2-oxo-1,2,4,5-tetrahydro-benzo[d][1,3]diazepin-3-yl)-piperidin-1-yl]-2-oxo-ethyl}-2,6-dioxo-3,6-dihydro-2H-pyrimidin-1-yl)-propyl]acetamide]
1	COCC(COC)n1c(=O)c(-c2cccc(F)c2Cl)cn(CC(=O)N2CCC(N3CCc4cc(OC)ccc4NC3=O)CC2)c1=O [Compound 232, 5-(2-chloro-3-fluorophenyl)-3-[2-methoxy-1-(methoxymethyl)ethyl]-1-[2-[4-(7-methoxy-2-oxo-4,5-dihydro-1H-1,3-benzodiazepin-3-yl)-1-piperidyl]-2-oxo-ethyl]pyrimidine-2,4-dione]
3	CC[C@H](C)n1c(=O)c(-c2cccc(F)c2Cl)cn(CC(=O)N2CCC(N3CCc4cc(OC)ccc4NC3=O)CC2)c1=O [Compound 237, 5-(2-chloro-3-fluorophenyl)-1-[2-[4-(7-methoxy-2-oxo-4,5-dihydro-1H-1,3-benzodiazepin-3-yl)-1-piperidyl]-2-oxo-ethyl]-3-[(1S)-1-methylpropyl]pyrimidine-2,4-dione]
0	COc1ccc2c(c1)CCN(C1CCN(C(=O)Cn3cc(-c4cccc(F)c4Cl)c(=O)n(CC(C)(C)OC)c3=O)CC1)C(=O)N2 [Compound 240, 5-(2-chloro-3-fluorophenyl)-3-(2-methoxy-2-methylpropyl)-1-[2-[4-(7-methoxy-2-oxo-4,5-dihydro-1H-1,3-benzodiazepin-3-yl)-1-piperidyl]-2-oxo-ethyl]pyrimidine-2,4-dione]
4	COc1ccc2c(c1)CCN(C1CCN(C(=O)Cn3cc(-c4cccc(F)c4Cl)c(=O)n(CCn4cnnc4)c3=O)CC1)C(=O)N2 [Compound 251, 5-(2-chloro-3-fluorophenyl)-1-[2-[4-(7-methoxy-2-oxo-4,5-dihydro-1H-1,3-benzodiazepin-3-yl)-1-piperidyl]-2-oxo-ethyl]-3-[2-(1,2,4-triazol-4-yl)ethyl]pyrimidine-2,4-dione]
